Assay [1] concerns Staphylococcus aureus. As to the kind of experiment: Antibacterial activity against Staphylococcus aureus MTCC 96 at 50 ug/ml by cup-plate method. In kind it is functional. The note with it: read-out: DIZ.
For assay [2], the system named is Staphylococcus aureus. The assay can be described thus: Antibacterial activity against Staphylococcus aureus MTCC 96 at 100 ug/ml by cup-plate method. The class given is functional. The note with it: read-out: DIZ.
The test system of assay [3] is Pseudomonas aeruginosa. As to the kind of experiment: Antibacterial activity against Pseudomonas aeruginosa MTCC 2453 at 200 ug/ml by cup-plate method. The note with it: read-out: DIZ. In kind it is functional.
The subject of assay [4] is Bacillus subtilis. As to the kind of experiment: Antibacterial activity against Bacillus subtilis MTCC 121 at 200 ug/ml by cup plate method. The class given is functional. The note with it: read-out: DIZ.
Assay [5] deals with Bacillus subtilis. As to the kind of experiment: Antibacterial activity against Bacillus subtilis MTCC 121 by cup plate method. The class given is functional, organism-based.
Assay [6] concerns Bacillus subtilis. The assay can be described thus: Antibacterial activity against Bacillus subtilis MTCC 121 at 50 ug/ml by cup plate method. The class given is functional. The note with it: read-out: DIZ.
In assay [7] the test system is Candida albicans. The assay can be described thus: Antifungal activity against Candida albicans MTCC 227 at 50 to 300 ug/ml by cup-plate method. In kind it is functional, organism-based.
The test system of assay [8] is Bacillus subtilis. The assay can be described thus: Antibacterial activity against Bacillus subtilis MTCC 121 at 100 ug/ml by cup plate method. The class given is functional. The note with it: read-out: DIZ.
In assay [9] the test system is Pseudomonas aeruginosa. The assay can be described thus: Antibacterial activity against Pseudomonas aeruginosa MTCC 2453 at 300 ug/ml by cup-plate method. In kind it is functional. The note with it: read-out: DIZ.
Assay [10] has as its system Staphylococcus aureus. As to the kind of experiment: Antibacterial activity against Staphylococcus aureus MTCC 96 at 300 ug/ml by cup-plate method. The class given is functional. The note with it: read-out: DIZ.
Assay [11] deals with Escherichia coli. The assay can be described thus: Antibacterial activity against Escherichia coli MTCC 739 at 100 ug/ml by cup-plate method. In kind it is functional. The note with it: read-out: DIZ.
Assay [12] relates to Pseudomonas aeruginosa. As to the kind of experiment: Antibacterial activity against Pseudomonas aeruginosa MTCC 2453 at 100 ug/ml by cup-plate method. The class given is functional. The note with it: read-out: DIZ.
For assay [13], the system named is Escherichia coli. The assay can be described thus: Antibacterial activity against Escherichia coli MTCC 739 at 200 ug/ml by cup-plate method. The class given is functional. The note with it: read-out: DIZ.
In assay [14] the test system is Pseudomonas aeruginosa. As to the kind of experiment: Antibacterial activity against Pseudomonas aeruginosa MTCC 2453 at 50 ug/ml by cup-plate method. In kind it is functional. The note with it: read-out: DIZ.
Assay [15] has as its system Pseudomonas aeruginosa. The assay can be described thus: Antibacterial activity against Pseudomonas aeruginosa MTCC 2453 by cup-plate method. The class given is functional, organism-based.
For assay [16], the system named is Staphylococcus aureus. The assay can be described thus: Antibacterial activity against Staphylococcus aureus MTCC 96 at 200 ug/ml by cup-plate method. The class given is functional. The note with it: read-out: DIZ.
The test system of assay [17] is Escherichia coli. As to the kind of experiment: Antibacterial activity against Escherichia coli MTCC 739 at 300 ug/ml by cup-plate method. In kind it is functional. The note with it: read-out: DIZ.
In assay [18] the test system is Escherichia coli. The assay can be described thus: Antibacterial activity against Escherichia coli MTCC 739 by cup-plate method. The class given is functional, organism-based.
The subject of assay [19] is Staphylococcus aureus. As to the kind of experiment: Antibacterial activity against Staphylococcus aureus MTCC 96 by cup-plate method. The class given is functional, organism-based.
Assay [20] has as its system Escherichia coli. As to the kind of experiment: Antibacterial activity against Escherichia coli MTCC 739 at 50 ug/ml by cup-plate method. In kind it is functional. The note with it: read-out: DIZ.
Assay [21] relates to Bacillus subtilis. As to the kind of experiment: Antibacterial activity against Bacillus subtilis MTCC 121 at 300 ug/ml by cup plate method. In kind it is functional. The note with it: read-out: DIZ.

Active and inactive are the calls of the source. No cut-off for these calls is given here.

As for `O=C1N/C(=N\c2cccc(Cl)c2)S/C1=C\c1ccccc1`, the zone of inhibition at 50 µg/mL amounted to 6 mm in assay [1], 6 mm in assay [6], 6 mm in assay [14] and 7 mm in assay [20]. Besides, the zone of inhibition at 100 µg/mL in [2], in assay [8], in assay [11] and in [12] was 7 mm each time. Further, the zone of inhibition at 200 µg/mL is 8 mm in [3], 7 mm in assay [4], 7 mm in assay [13] and 8 mm in [16]. Besides, the Activity result in assay [5], in assay [15], in assay [18] and in assay [19] was “Dose-dependent effect” in each case. In addition, in assay [7], the outcome was inactive. In addition, the zone of inhibition at 300 µg/mL in [9] was 9 mm; in assay [10] it was 9 mm; in [17], 8 mm; in [21], 7 mm.
For the molecule `O=C1N/C(=N\c2ccc(Cl)cc2)S/C1=C\c1ccc(O)cc1`, the zone of inhibition at 50 µg/mL in assay [1] stood at 6 mm; in assay [6], 6 mm; in [14] it was 7 mm; in assay [20], 7 mm. The zone of inhibition at 100 µg/mL amounted to 7 mm in [2], 7 mm in [8], 7 mm in assay [11] and 8 mm in [12]. The zone of inhibition at 200 µg/mL amounted to 8 mm in assay [3], 7 mm in [4], 8 mm in [13] and 7 mm in [16]. In addition, the Activity result in assay [5], in [15], in assay [18] and in assay [19] was “Dose-dependent effect” in each case. For the same molecule, the result in assay [7] was inactive. The zone of inhibition at 300 µg/mL in assay [9] stood at 9 mm; in [10], 8 mm; in [17] it was 8 mm; in assay [21], 8 mm.
For `O=C1N/C(=N\c2cccc(Cl)c2)S/C1=C\c1ccc(O)cc1`, the zone of inhibition at 50 µg/mL in assay [1] was determined as 8 mm; in assay [6], 6 mm; in [14], 7 mm; in [20] it was 7 mm. In addition, the zone of inhibition at 100 µg/mL amounted to 9 mm in [2], 7 mm in assay [8], 7 mm in [11] and 8 mm in assay [12]. Besides, the zone of inhibition at 200 µg/mL came out at 9 mm in assay [3], 8 mm in assay [4], 8 mm in assay [13] and 9 mm in [16]. Besides, the Activity entry in assay [5], in assay [15], in assay [18] and in assay [19] was “Dose-dependent effect” each time. In addition, the result in assay [7] was inactive. The zone of inhibition at 300 µg/mL in assay [9] came out at 10 mm; in [10], 10 mm; in assay [17], 9 mm; in assay [21] it was 9 mm.
With `O=C1N/C(=N\c2ccc(Cl)cc2)S/C1=C\c1ccc(Cl)cc1`, the zone of inhibition at 50 µg/mL in [1] came to 6 mm; in assay [6] it was 7 mm; in [14], 6 mm; in assay [20], 8 mm. Moreover, the zone of inhibition at 100 µg/mL in assay [2] is 8 mm; in assay [8], 8 mm; in assay [11] it was 8 mm; in [12] it was 7 mm. The zone of inhibition at 200 µg/mL turned out to be 8 mm in assay [3], 8 mm in assay [4], 7 mm in [13] and 9 mm in assay [16]. Besides, the Activity entry in assay [5], in assay [15], in assay [18] and in assay [19] was “Dose-dependent effect” throughout. Further, the outcome in [7] was inactive. Also, the zone of inhibition at 300 µg/mL in assay [9] turned out to be 10 mm; in assay [10], 10 mm; in assay [17], 9 mm; in assay [21] it was 10 mm.
In the case of `O=C1N/C(=N\c2cccc(Cl)c2)S/C1=C\c1ccccc1[N+](=O)[O-]`, the zone of inhibition at 50 µg/mL in assay [1] worked out at 8 mm; in assay [6], 9 mm; in assay [14] it was 7 mm; in [20], 6 mm. The zone of inhibition at 100 µg/mL in assay [2] worked out at 9 mm; in assay [8] it was 9 mm; in [11], 8 mm; in assay [12], 8 mm. For the same molecule, the zone of inhibition at 200 µg/mL in [3] worked out at 9 mm; in assay [4] it was 9 mm; in assay [13] it was 9 mm; in assay [16] it was 10 mm. In addition, the Activity result in assay [5], in assay [15], in assay [18] and in assay [19] was “Dose-dependent effect” throughout. For the same molecule, the result in [7] was inactive. For the same molecule, the zone of inhibition at 300 µg/mL in assay [9] turned out to be 9 mm; in assay [10] it was 10 mm; in assay [17], 9 mm; in assay [21], 10 mm.
Consider `COc1cc(/C=C2\S/C(=N/c3cccc(Cl)c3)NC2=O)ccc1O`, for which the zone of inhibition at 50 µg/mL in [1] came to 6 mm; in [6], 7 mm; in assay [14], 6 mm; in assay [20], 7 mm. Besides, the zone of inhibition at 100 µg/mL in [2] was 7 mm; in [8], 8 mm; in [11], 8 mm; in assay [12] it was 8 mm. In addition, the zone of inhibition at 200 µg/mL came to 9 mm in [3], 8 mm in [4], 9 mm in assay [13] and 8 mm in assay [16]. For the same molecule, the Activity result in assay [5], in assay [15], in [18] and in assay [19] was “Dose-dependent effect” throughout. In addition, in assay [7], the result was inactive. The zone of inhibition at 300 µg/mL in assay [9] turned out to be 9 mm; in assay [10] it was 8 mm; in [17], 9 mm; in assay [21] it was 9 mm.
On to `O=C1N/C(=N\c2ccc(F)c(Cl)c2)S/C1=C\c1ccc(Cl)cc1`, for which the zone of inhibition at 50 µg/mL in [1] worked out at 10 mm; in assay [6] it was 8 mm; in assay [14], 8 mm; in assay [20], 9 mm. The zone of inhibition at 100 µg/mL in assay [2] is 12 mm; in assay [8] it was 10 mm; in assay [11], 12 mm; in [12], 9 mm. The zone of inhibition at 200 µg/mL in [3] is 11 mm; in assay [4] it was 11 mm; in assay [13] it was 12 mm; in assay [16], 12 mm. For the same molecule, the Activity result in assay [5], in assay [15], in [18] and in [19] was “Dose-dependent effect” in each case. Also, the outcome in [7] was inactive. Further, the zone of inhibition at 300 µg/mL in [9] turned out to be 12 mm; in assay [10], 14 mm; in assay [17], 12 mm; in assay [21], 13 mm.
In the case of `O=C1N/C(=N\c2ccc(Cl)cc2)S/C1=C\c1ccccc1Cl`, the zone of inhibition at 50 µg/mL in [1] came out at 8 mm; in assay [6] it was 8 mm; in [14], 9 mm; in [20], 9 mm. The zone of inhibition at 100 µg/mL in [2] turned out to be 8 mm; in [8] it was 8 mm; in assay [11], 9 mm; in assay [12] it was 9 mm. Besides, the zone of inhibition at 200 µg/mL in [3] amounted to 9 mm; in [4], 9 mm; in [13], 10 mm; in [16], 9 mm. In addition, the Activity result in assay [5], in [15], in assay [18] and in assay [19] was “Dose-dependent effect” in each case. Besides, the outcome in [7] was inactive. For the same molecule, the zone of inhibition at 300 µg/mL was determined as 9 mm in assay [9], 10 mm in [10], 9 mm in assay [17] and 10 mm in [21].
